Laboratory results reported in patent US6620808B2, “Endocrine modulation with positive modulators of AMPA type glutamate receptors” (The Regents of the University of California, priority 1997, dated 2003).

Test system: Sections of the hypothalamus containing the arcuate nucleus
Assay: release of GHRH from hypothalamic explants in static culture
Format: cell-based, rats
Settings: GR87 at 100 μm
Text: The arcuate nucleus of the hypothalamus contains the majority of cells that synthesize GHRH and secrete the releasing factor into the anterior pituitary. Sections of the hypothalamus containing the arcuate nucleus were explanted from postnatal day 10-12 rats and maintained in static culture. Once established, these cultures were used to test the prediction that positive, allosteric modulators of AMPA type glutamate receptors will increase the release of GHRH from the hypothalamus into the culture medium. Explants were exposed to GR87 at 100 μm for four hours on some days and to vehicle for the same period on other days. Concentrates of the media were prepared following the exposure periods of GHRH assayed using a commercially available kit. Using a within culture design, i.e. drug vs. vehicle in the same tissue well, provided a control for differences in tissue thickness and the extent to which the arcuate was contained within the explants. As shown, the amount of GHRH in the media was about threefold greater after four hours of treatment with ampakine than it was after an equivalent period of vehicle application. This effect was in the predicted direction and was statistically significant (p=0.011).
A single experiment was conducted to test if prolonged administration of GR87 at 100 μm would affect GHRH secretion. […]

## O=C(c1ccc2c(c1)OCCO2)N1CCCCC1 [GR87]
24 hours, group of 12 explants (controls 18 ng/400 μl)
  media level of GHRH: 47 ng/400 μl
Four hours, within-culture drug vs vehicle, p=0.011
  amount of GHRH in the media relative to vehicle application: about threefold
